The target of experiment [1] is T1, Prostaglandin E2 receptor EP3 subtype (Bos taurus, UniProt P34979).
T1 sequence (P34979 whole entry): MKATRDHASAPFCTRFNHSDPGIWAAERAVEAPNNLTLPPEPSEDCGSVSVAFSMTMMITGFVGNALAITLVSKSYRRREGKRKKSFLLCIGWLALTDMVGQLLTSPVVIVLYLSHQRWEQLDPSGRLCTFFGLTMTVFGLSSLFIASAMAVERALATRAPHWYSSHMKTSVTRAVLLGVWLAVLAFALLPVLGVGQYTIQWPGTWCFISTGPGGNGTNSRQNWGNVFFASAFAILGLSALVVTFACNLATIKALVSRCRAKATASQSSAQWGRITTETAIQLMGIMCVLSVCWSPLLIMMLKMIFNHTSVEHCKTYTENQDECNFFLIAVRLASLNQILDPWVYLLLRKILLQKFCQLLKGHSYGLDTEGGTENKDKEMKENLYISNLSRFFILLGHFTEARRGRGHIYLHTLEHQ

Experiment [2] addresses Prostaglandin F2-alpha receptor (Bos taurus, UniProt P37289).

The term Ki denotes a measure of affinity in units of concentration, obtained from inhibition or displacement. Low readings indicate higher affinity, high ones lower affinity.

Molecules are shown by their SMILES. “And” between values parts separate entries of the source, which are not always exact repeats. Equal values may be shown once.

Sequence of Prostaglandin F2-alpha receptor (P37289 whole entry): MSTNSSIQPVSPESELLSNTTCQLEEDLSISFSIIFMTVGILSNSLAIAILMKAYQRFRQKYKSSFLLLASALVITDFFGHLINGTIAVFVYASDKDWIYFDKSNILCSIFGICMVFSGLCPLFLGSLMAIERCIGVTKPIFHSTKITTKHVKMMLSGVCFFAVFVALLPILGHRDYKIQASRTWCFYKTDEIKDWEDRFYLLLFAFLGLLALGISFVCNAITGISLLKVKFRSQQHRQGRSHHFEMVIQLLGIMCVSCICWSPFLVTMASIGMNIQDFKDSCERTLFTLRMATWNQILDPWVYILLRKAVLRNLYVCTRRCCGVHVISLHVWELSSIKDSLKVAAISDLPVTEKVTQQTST

Turning to `CC#CCC(C)[C@H](O)/C=C/[C@@H]1[C@H]2C/C(=C/CCCC(=O)O)C[C@H]2C[C@H]1O` (some centres not stated), affinity in experiment [1] was put at a Ki of 265 nM.

With `CCCCC[C@@H](O)/C=C/[C@H]1[C@H](O)CC(=O)[C@@H]1CCCCCCC(=O)O`, the Ki in experiment [2] is above 10000 nM; in experiment [1], 2 nM and 4 nM.

Consider `CCCCC[C@H](O)/C=C/[C@@H]1[C@H]2C/C(=C\CCCC(=O)O)C[C@H]2C[C@H]1O`, for which the Ki in experiment [2] is above 10000 nM; in experiment [1] it was 4860 nM and 5370 nM.

On to `O=C(O)CCC/C=C\C[C@H]1C(=O)C[C@@H](O)[C@@H]1/C=C/[C@@H](O)CCc1ccccc1` [17-PHENYL TRINOR PROSTAGLANDIN E2], for which the Ki in experiment [2] is 1410 nM; in experiment [1], 16 nM and 7 nM.

For the compound `CCCCC[C@H](O)/C=C/C1[C@H](O)C[C@H](O)[C@@H]1C/C=C\CCCC(=O)O` (stereo partly drawn) [(Z)-7-[(1R,3R,5S)-3,5-Dihydroxy-2-((E)-(S)-3-hydroxy-oct-1-enyl)-cyclopentyl]-hept-5-enoic acid], the Ki in experiment [1] was 37 nM and 24 nM.

`CCCC1([C@@H](O)C/C=C/C2[C@H](O)CC(=O)[C@@H]2CCCCCCC(=O)OC)CCC1` (some centres not stated) [Butaprost (Methyl Ester)] registered a Ki in experiment [1] above 10000 nM.

`O=C(O)CCCC=CCC1C(O)CC(O)C1C=CC(O)COc1cccc(C(F)(F)F)c1` (configuration not stated) [CAS_40666-16-8]: the Ki is 100 nM in experiment [2]; 3170 nM and 3500 nM in experiment [1].

Consider `CCCCCC(O)CC=C1C(=O)C=CC1CC=CCCCC(=O)O` (configuration not stated) [CAS_41598-07-6], for which the Ki was 2500 nM in experiment [2]; 1580 nM and 1110 nM in experiment [1].

As for `CS(=O)(=O)NC(=O)CCCC=CCC1C(=O)CC(O)C1C=CC(O)COc1ccccc1` (configuration not stated) [CAS_60325-46-4], the Ki in experiment [2] is 2500 nM; in experiment [1] it was 21 nM and 11 nM.

For the compound `O=C(O)CCCCCCc1c(O)n(Cc2ccccc2)c(=O)n1NCC(O)C1CCCCC1` (configuration not stated) [CAS_122021], the Ki in experiment [2] and in experiment [1] was above 10000 nM each time.

On to `CC(C)OC(=O)CCC/C=C\C[C@@H]1[C@@H](/C=C/[C@@H](O)CCc2ccccc2)[C@H](O)C[C@@H]1O` [CAS_130209-76-6], for which the Ki in experiment [2] amounted to 59 nM; in experiment [1], 388 nM.

In experiment [1], `COC(=O)CCC=CCCC1C(=O)CC(O)C1C=CCC(C)(O)C=CC1=CCCC1` (configuration not stated) [CAS_132045] had a Ki of 29 nM. That is a double-digit nanomolar value.

`CCCCCCCC(=O)CCC1C(O)CC(O)C1CC=CCCCC(=O)OC(C)C` (configuration not stated) [CAS_151671]: the figures for the Ki in experiment [2] and in experiment [1] were 5900 nM and above 10000 nM, respectively.

Regarding `CC(=O)NNC(=O)N1Cc2ccccc2Oc2ccc(Cl)cc21` [CAS_4336830], the Ki in experiment [1] was 3000 nM and > 10000 nM.

Consider `CC1CCCCC1C(O)C=CC1C(O)CC(Cl)C1CC=CCOCC(=O)O` (configuration not stated) [CAS_5311208], for which the values for the Ki in experiment [2] and in experiment [1] were above 10000 nM and 8740 nM, respectively.

As for `O=C(O)CCC/C=C\C[C@@H]1[C@@H](/C=C/[C@@H](O)COc2cccc(Cl)c2)[C@H](O)C[C@@H]1O` [CLOPROSTENOL], the Ki in experiment [1] is 90 nM and 91 nM.

In the case of `CCCCC[C@H](O)/C=C/[C@H]1[C@H](O)CC(=O)[C@@H]1C/C=C\CCCC(=O)O` [DINOPROSTONE], the Ki in experiment [2] is 3400 nM; in experiment [1], 4 nM and 3 nM.

With `CC(C)OC(=O)CCC/C=C/C[C@@H]1[C@@H](CC[C@@H](O)CCc2ccccc2)[C@H](O)C[C@@H]1O` [LATANOPROST (PHXA41)], the Ki in experiment [2] was 4200 nM; in experiment [1] it was above 10000 nM.

Take `CCCCC(C)(O)CC=CC1C(O)CC(=O)C1CCCCCCC(=O)OC` (configuration not stated) [MISOPROSTOL (Methyl Ester)]: the Ki in experiment [1] is 25 nM and 54 nM.

With `O=NN1CSCSC1` [NSC_130741], the Ki in experiment [2] and in experiment [1] was above 10000 nM throughout.

In the case of `O=C(O)CCCC=CC[C@@H]1[C@@H](CC[C@@H](O)CCc2ccccc2)[C@H](O)C[C@@H]1O` [NSC_170548], the Ki is 98 nM in experiment [2]; > 10000 nM and 7940 nM in experiment [1].

Regarding `COC(=O)CCC=C=CCC1C(=O)CC(O)C1C=CC(O)COc1ccccc1` (configuration not stated) [NSC_5282207], the Ki in experiment [2] is 1000 nM; in experiment [1], 12 nM and 25 nM.

Regarding `O=C(CCC=CCCC1C(=O)CC(O)C1OCC(O)COc1ccccc1)Oc1ccc(NC(=O)c2ccccc2)cc1` (configuration not stated) [NSC_5311224], the Ki in experiment [2] was above 10000 nM; in experiment [1], 8 nM and 11 nM.

Turning to `O=C(O)CCC/C=C\C[C@@H]1[C@@H](/C=C/[C@@H](O)COc2ccccc2)[C@H](O)C[C@@H]1O` [PGF2Alpha,16-Phenoxy], in experiment [2], affinity was put at a Ki of 22 nM. In other words, the double-digit nanomolar range.

In the case of `CCCCC[C@H](O)/C=C/C1[C@@H](C/C=C\CCCC(=O)O)[C@H]2CO[C@@H]1C2` (some centres not stated) [U46619], the Ki in experiment [2] was 8900 nM; in experiment [1], above 10000 nM.

The values above are taken from BindingDB's records for PubMed 9694973 (Alcon Laboratories, 1998).
